Data published in patent US9480259B2, “Pyrazolopyrans having herbicidal and pharmaceutical properties” (BASF SE, priority 2012, dated 2016).

What follows are compounds tested against Arabidopsis thaliana SHMT (assay: SHMT activity assay (ED50 SHMT), coupled with N5,N10-CH2-THF dehydrogenase, NADH at 340 nm). Conditions: Arabidopsis thaliana SHMT enzyme assay; values given as upper bounds.
Format: biochemical
Procedure, shortened: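 His-tagged SHMT purified on Ni-NTA. NADH formation followed at 340 nm for 30 min; ED50 from inhibition of initial velocity.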

Row | EC50 [µM] | Compound
1 | < 0.01 | Cc1n[nH]c2c1C(c1cc(Cl)cc(SCc3nnn[nH]3)c1)(C1CCC1)C(C#N)=C(N)O2 (centres unmarked) [Compound 2.667]
2 | < 0.1 | Cc1n[nH]c2c1C(c1cc(-c3nnn[nH]3)cc(N(C)C(=O)CCC#N)c1)(C1CCC1)C(C#N)=C(N)O2 (centres unmarked) [Compound 2.668]
3 | < 0.01 | Cc1n[nH]c2c1C(c1cc(Cl)cc(CCCC#N)c1)(C1CCC1)C(C#N)=C(N)O2 (centres unmarked) [Compound 2.670]
4 | < 0.01 | Cc1n[nH]c2c1C(c1ccc(CC#N)c(C#N)c1)(C1CCC1)C(C#N)=C(N)O2 (centres unmarked) [Compound 2.672]
5 | < 0.01 | Cc1n[nH]c2c1C(c1ccc(CCCC#N)c(Cl)c1)(C1CCC1)C(C#N)=C(N)O2 (centres unmarked) [Compound 2.673]
6 | < 0.01 | Cc1n[nH]c2c1C(c1cc(Cl)cc(CCCc3nnn[nH]3)c1)(C1CCC1)C(C#N)=C(N)O2 (centres unmarked) [Compound 2.677]
7 | < 0.01 | Cc1n[nH]c2c1C(c1cc(C#N)cc(-c3cc(C(=O)O)co3)c1)(C1CCC1)C(C#N)=C(N)O2 (centres unmarked) [Compound 2.684]
8 | < 1 | Cc1n[nH]c2c1C(c1cc(-c3nnn[nH]3)cc(N(C)C(=O)CCCC#N)c1)(C1CCC1)C(C#N)=C(N)O2 (centres unmarked) [Compound 2.690]
9 | < 0.1 | Cc1n[nH]c2c1C(c1cc(C#N)cc(N(C)Cc3nnn[nH]3)c1)(C1CCC1)C(C#N)=C(N)O2 (centres unmarked) [Compound 2.691]
10 | < 1 | Cc1n[nH]c2c1C(c1cc(-c3nnn[nH]3)cc(N(C)CCC#N)c1)(C1CCC1)C(C#N)=C(N)O2 (centres unmarked) [Compound 2.692]
11 | < 0.1 | Cc1n[nH]c2c1C(c1cc(C#N)cc(N(C)CC(=O)O)c1)(C1CCC1)C(C#N)=C(N)O2 (centres unmarked) [Compound 2.693]
12 | < 0.01 | Cc1n[nH]c2c1C(c1cc(C#N)cc(N(C)C(=O)CCCC(=O)O)c1)(C(C)C)C(C#N)=C(N)O2 (centres unmarked) [Compound 2.694]
13 | < 0.1 | Cc1n[nH]c2c1C(c1cc(C#N)cc(N(C)CCCC(=O)O)c1)(C1CCC1)C(C#N)=C(N)O2 (centres unmarked) [Compound 2.695]
14 | < 0.01 | Cc1n[nH]c2c1C(c1cc(Cl)cc(N(C)C(=O)CC#N)c1)(C1CCC1)C(C#N)=C(N)O2 (centres unmarked) [Compound 2.696]
15 | < 0.1 | Cc1n[nH]c2c1C(c1cc(Cl)cc(N(C)C(=O)CCC#N)c1)(C1CCC1)C(C#N)=C(N)O2 (centres unmarked) [Compound 2.697]
16 | < 0.1 | Cc1n[nH]c2c1C(c1cc(Cl)cc(N(C)C(=O)CCc3nnn[nH]3)c1)(C1CCC1)C(C#N)=C(N)O2 (centres unmarked) [Compound 2.698]
17 | < 0.1 | Cc1n[nH]c2c1C(c1cc(Cl)cc(N(C)C(=O)Cc3nnn[nH]3)c1)(C1CCC1)C(C#N)=C(N)O2 (centres unmarked) [Compound 2.699]
18 | < 0.1 | Cc1n[nH]c2c1C(c1cc(Cl)cc(N(C)C(=O)CCCC#N)c1)(C1CCC1)C(C#N)=C(N)O2 (centres unmarked) [Compound 2.700]
19 | < 0.1 | Cc1n[nH]c2c1C(c1cc(Cl)cc(N(C)C(=O)CCCc3nnn[nH]3)c1)(C1CCC1)C(C#N)=C(N)O2 (centres unmarked) [Compound 2.701]
20 | < 0.1 | Cc1n[nH]c2c1C(c1cc(C#N)cc(NS(C)(=O)=O)c1)(C1CCC1)C(C#N)=C(N)O2 (centres unmarked) [Compound 2.704]
21 | < 0.1 | Cc1n[nH]c2c1C(c1cc(C#N)cc(N(C)C(=O)CCc3nnn[nH]3)c1)(C1CCC1)C(C#N)=C(N)O2 (centres unmarked) [Compound 2.718]
22 | < 0.1 | CCOC(=O)CS(=O)(=O)N(C)c1cc(C#N)cc(C2(C3CCC3)C(C#N)=C(N)Oc3[nH]nc(C)c32)c1 (centres unmarked) [Compound 2.719]

The next lines start with the compound.

Row | Compound | EC50 [µM]
23 | Cc1n[nH]c2c1C(c1cc(C#N)cc(N(C)C(=O)c3ccc(C(=O)O)cc3)c1)(C(C)C)C(C#N)=C(N)O2 (centres unmarked) [Compound 2.669] | < 0.1
24 | Cc1n[nH]c2c1C(c1cc(C#N)cc(CCC#N)c1)(C(C)C)C(C#N)=C(N)O2 (centres unmarked) [Compound 2.671] | < 0.01
25 | Cc1n[nH]c2c1C(c1cc(Cl)cc(Cl)c1)(C1CC(F)C1)C(C#N)=C(N)O2 (centres unmarked) [Compound 2.674] | < 0.01
26 | COC(=O)c1ccc(-c2cc(C#N)cc(C3(C4(F)COC4)C(C#N)=C(N)Oc4[nH]nc(C)c43)c2)s1 (centres unmarked) [Compound 2.676] | < 0.1
27 | Cc1n[nH]c2c1C(c1ccc(CCCc3nnn[nH]3)c(Cl)c1)(C1CCC1)C(C#N)=C(N)O2 (centres unmarked) [Compound 2.678] | < 0.01
28 | COC(=O)c1csc(-c2cc(C#N)cc(C3(C(C)C)C(C#N)=C(N)Oc4[nH]nc(C)c43)c2)c1 (centres unmarked) [Compound 2.679] | < 0.01
29 | Cc1n[nH]c2c1C(c1cc(C#N)cc(-c3ccc(C(=O)O)s3)c1)(C1(F)COC1)C(C#N)=C(N)O2 (centres unmarked) [Compound 2.680] | < 1
30 | Cc1n[nH]c2c1C(c1cc(C#N)cc(-c3ccc(C(=O)O)o3)c1)(C1(F)COC1)C(C#N)=C(N)O2 (centres unmarked) [Compound 2.681] | < 10
31 | COC(=O)c1csc(-c2cc(C#N)cc(C3(C4CCC4)C(C#N)=C(N)Oc4[nH]nc(C)c43)c2)c1 (centres unmarked) [Compound 2.682] | < 0.01
32 | Cc1n[nH]c2c1C(c1cc(C#N)cc(-c3cc(C(=O)O)cs3)c1)(C1CCC1)C(C#N)=C(N)O2 (centres unmarked) [Compound 2.683] | < 0.01
33 | Cc1n[nH]c2c1C(c1cc(Br)cc(Br)c1)(C(C)F)C(C#N)=C(N)O2 (centres unmarked) [Compound 2.685] | < 0.01
34 | Cc1n[nH]c2c1C(c1cc(C#N)cc(-c3cc(C(=O)O)cs3)c1)(C(C)C)C(C#N)=C(N)O2 (centres unmarked) [Compound 2.686] | < 0.1
35 | Cc1n[nH]c2c1C(c1cc(C#N)cc(C#N)c1)(C(C)F)C(C#N)=C(N)O2 (centres unmarked) [Compound 2.687] | < 0.1
36 | Cc1n[nH]c2c1C(c1cc(CN)cc(N(C)C(=O)CCCC(=O)O)c1)(C(C)C)C(C#N)=C(N)O2 (centres unmarked) [Compound 2.689] | < 1
37 | Cc1n[nH]c2c1C(c1cccc(Br)c1)(C(C)(F)F)C(C#N)=C(N)O2 (centres unmarked) [Compound 2.702] | < 0.1
38 | Cc1n[nH]c2c1C(c1cc(Br)cc(Br)c1)(C1CC(F)(F)C1)C(C#N)=C(N)O2 (centres unmarked) [Compound 2.703] | < 0.1
39 | COC(=O)c1ccc(-c2cc(C#N)cc(C3(C(C)C)C(C#N)=C(N)Oc4[nH]nc(C)c43)c2)s1 (centres unmarked) [Compound 2.705] | < 0.01
40 | COC(=O)c1ccc(-c2cc(C#N)cc(C3(C(C)C)C(C#N)=C(N)Oc4[nH]nc(C)c43)c2)o1 (centres unmarked) [Compound 2.706] | < 0.01
41 | Cc1n[nH]c2c1C(c1cc(C#N)cc(C#N)c1)(C1CC(F)(F)C1)C(C#N)=C(N)O2 (centres unmarked) [Compound 2.707] | < 1
42 | Cc1n[nH]c2c1C(c1ccc(CC#N)c(-c3nnn[nH]3)c1)(C1CCC1)C(C#N)=C(N)O2 (centres unmarked) [Compound 2.708] | < 10
43 | Cc1n[nH]c2c1C(c1cc(CCC#N)cc(-c3nnn[nH]3)c1)(C(C)C)C(C#N)=C(N)O2 (centres unmarked) [Compound 2.710] | < 0.1
44 | Cc1n[nH]c2c1C(c1cc(CCCC#N)cc(-c3nnn[nH]3)c1)(C(C)C)C(C#N)=C(N)O2 (centres unmarked) [Compound 2.711] | < 0.1
45 | Cc1n[nH]c2c1C(c1cc(C#N)cc(C#N)c1)(C1CC(F)C1)C(C#N)=C(N)O2 (centres unmarked) [Compound 2.714] | < 0.1
46 | Cc1n[nH]c2c1C(c1cc(CCCc3nnn[nH]3)cc(-c3nnn[nH]3)c1)(C(C)C)C(C#N)=C(N)O2 (centres unmarked) [Compound 2.715] | < 1
47 | Cc1n[nH]c2c1C(c1cc(CCc3nnn[nH]3)cc(-c3nnn[nH]3)c1)(C(C)C)C(C#N)=C(N)O2 (centres unmarked) [Compound 2.716] | < 10
48 | Cc1n[nH]c2c1C(c1cc(C#N)cc(N(C)C(=O)c3cccc(C(=O)O)c3)c1)(C(C)C)C(C#N)=C(N)O2 (centres unmarked) [Compound 2.717] | < 0.1
49 | Cc1n[nH]c2c1C(c1cc(C#N)cc(N(C)C(=O)Cc3nnn[nH]3)c1)(C(C)C)C(C#N)=C(N)O2 (centres unmarked) [Compound 2.721] | < 0.1
50 | Cc1n[nH]c2c1C(c1cc(C#N)cc(N(C)C(=O)CCCc3nnn[nH]3)c1)(C(C)C)C(C#N)=C(N)O2 (centres unmarked) [Compound 2.722] | < 0.1
